Experimental data taken from patent publication US11278561B2, “Combination treatment for hematological cancers” (Geron Corporation, priority 2016, dated 2022).
{PalmAG} = palmitoyl amide conjugated through an aminoglycerol linker to the 5'-thiophosphate; {PalmN} = palmitoyl amide conjugated through the terminal 3'-amino group; [NPS] = N3'→P5' thiophosphoramidate internucleoside linkage; {NH2} = amino group

Legend:
Assay type in all cases: cell-based
KG-1 cells = test: Annexin V / Propidium Iodide flow cytometry apoptosis assay in KG-1; design: key to Excess over HSA / Excess over BLISS: excess in % apoptotic (Annexin V/PI double-labeled) cells over HSA/Bliss; details: ABT-199 0 nM, r7 Mismatch 50 μM, r8 Mismatch 25 μM, r9 Non-complimentary 50 μM, r10 Non-complimentary 25 μM
Experimental: (§1) AML tumor cells KG-1 (ATCC #CCL-246) and MOLM-13 (DSMZ #ACC554) were plated at a density of ˜20,000 cells per well on 96-well polystyrene U-bottom tissue culture plates (Corning catalog #353777) in RPMI-1640 (ThermoFisher catalog #11875-085) supplemented with 10% fetal bovine serum (ThermoFisher catalog #16140-089) and 1% penicillin/streptomycin antibiotic cocktail (ThermoFisher catalog 15140-122) and grown in a 37° C. incubator under humidified 5% CO2 atmosphere.
(§2) At 48 and 96 hours, cells were measured for healthy, early apoptotic and apoptotic populations with an Annexin V (interior cell membrane stain) plus Propidium Iodide (PI, DNA binding dye) flow cytometry assay kit (BioLegend catalog 640914). Annexin V detects the externalization of phosphatidylserine in apoptotic cells using recombinant annexin V conjugated to green-fluorescent FITC dye and dead cells using Propidium iodide (PI). Propidium iodide stains necrotic cells with red fluorescence. After treatment with both probes, early apoptotic cells show green fluorescence, apoptotic (dead) cells show red and green fluorescence, and live cells show little or no fluorescence. […] Cells were stained for 30 minutes at 4° C. in the dark, followed by 3× washes with PBS and suspension in FACs Stain Buffer (BD catalog 554657) prior to interrogation on a BD FACs Canto flow cytometer for forward scatter, side scatter, FITC, and PE channels. […] The percentage of apoptotic cells (double labeled) was used to calculate combination effects using both the Highest Single Agent (HSA) and Bliss additivity models (J Tang et al. Frontiers in Pharmacology. 2015; 6 (181)).
(§3) Using the HSA model, the cytotoxic effect of the combined condition (“C”) was compared to the effect generated by each of the single agent controls (“A” or “B”) for the respective dose in the combination: Excess over HSA=C−A (if A>B) or C−B (if A<B)
(§4) The Bliss model performs a similar comparison, but instead of the highest effect of single agent, the Bliss model subtracts from the combination a value equal to the sum of each single agent minus their product: Excess over Bliss=C−[(A+B)−(A*B)]

MOLM-13 cells [1] = test: Annexin V / Propidium Iodide flow cytometry apoptosis assay in MOLM-13; design: key to Excess over HSA / Excess over BLISS: excess = combination minus HSA/Bliss expected, in % apoptotic cells; details: for Loewe Excess: ABT-199 nM: r7 1000, r8 500, r9 100, r10 20, r11 5, r12 1, r13 0.2, r14 0.04, r15 0; for Excess over HSA: MOLM-13, 96 hours, ABT-199 0 nM, r7 Mismatch 50 μM, r8 Mismatch 25 μM, r9 Non-complimentary 50 μM, r10 Non-complimentary 25 μM
Experimental: as §1, §2, §3, §4
Treated cells were analyzed by Flow cytometry for Annexin V and Propidium Iodide staining as described previously. Events gated in the apoptotic population (Annexin V+/Propidium Iodide+) were used to determine synergy scores for the combination matrix. Combination data analysis was generated by the Horizon Chalice™ Analyzer Software (Horizon Discovery Group, Cambridge, UK). […] Mismatch and non-complimentary controls were not utilized in this experiment.
Combination conditions undergo isobolar analysis to generate a combination index and graphically represent the behavior of a combination with synergistic pairs falling below the isobologram and antagonistic falling above it (additive combinations would be expected to fall on the line). The Horizon Chalice™ Analyzer Software additionally provides a synergy score, with values greater than 1 indicating synergy.

MOLM-13 cells [2] = test: as above; design: key to Excess over BLISS: Excess over Bliss = C−[(A+B)−(A*B)], % apoptotic cells; key to Excess over HSA: excess = combination minus HSA/Bliss expected, in % apoptotic cells; details: for Loewe Excess: MOLM-13, 48 hour treatment, ABT-199 nM: r7 1000, r8 500, r9 100, r10 20, r11 5, r12 1, r13 0.2, r14 0.04, r15 0; for Excess over BLISS / Excess over HSA: ABT-199 0 nM, r7 Mismatch 50 μM, r8 Mismatch 25 μM, r9 Non-complimentary 50 μM, r10 Non-complimentary 25 μM

Mismatch: control oligonucleotide 5′-R-TAGGTGTAAGCAA-NH2-3′ (SEQ ID NO: 2), palmitoyl amide conjugated NPS-linked oligonucleotide (all [NPS], 5' {PalmAG}, 3' {NH2}, sugars by position and methylation of C not given here)
−1: Loewe Excess (MOLM-13 cells [1]; MOLM-13, 96 hour treatment, Mismatch 10 μM) | Loewe Excess (MOLM-13 cells [1]; MOLM-13, 96 hour treatment, Mismatch 50 μM) | Loewe Excess (MOLM-13 cells [2]; Mismatch 10 μM)
−2: Loewe Excess (MOLM-13 cells [1]; MOLM-13, 96 hour treatment, Mismatch 25 μM)
0: Excess over BLISS (KG-1 cells; KG-1, 48 hours) | Excess over HSA (KG-1 cells; KG-1, 48 hours) | Excess over BLISS (KG-1 cells; KG-1, 96 hours) | Excess over HSA (KG-1 cells; KG-1, 96 hours) | Loewe Excess (MOLM-13 cells [1]; MOLM-13, 48 hour treatment, Mismatch 50 μM) | Loewe Excess (MOLM-13 cells [1]; MOLM-13, 48 hour treatment, Mismatch 75 μM) | Loewe Excess (MOLM-13 cells [1]; MOLM-13, 96 hour treatment, Mismatch 5 μM) | Excess over HSA (MOLM-13 cells [1]) | Excess over BLISS (MOLM-13 cells [2]; MOLM-13, 48 hours) | Excess over HSA (MOLM-13 cells [2]; MOLM-13, 48 hours) | Excess over BLISS (MOLM-13 cells [2]; MOLM-13, 96 hours)
2: Loewe Excess (MOLM-13 cells [1]; MOLM-13, 48 hour treatment, Mismatch 5 μM)
1: Loewe Excess (MOLM-13 cells [1]; MOLM-13, 48 hour treatment, Mismatch 25 μM) | Loewe Excess (MOLM-13 cells [1]; MOLM-13, 96 hour treatment, Mismatch 1 μM) | Loewe Excess (MOLM-13 cells [1]; MOLM-13, 96 hour treatment, Mismatch 75 μM)
4: Loewe Excess (MOLM-13 cells [1]; MOLM-13, 48 hour treatment, Mismatch 1 μM)

Non-complimentary: control oligonucleotide 5′-AACAGATTGGGAT-R-3′ (SEQ ID NO: 3), palmitoyl amide on the terminal 3′ amino group of an NPS oligonucleotide (all [NPS], 3' {PalmN}, sugars by position and methylation of C not given here)
6: Loewe Excess (MOLM-13 cells [1]; MOLM-13, 48 hour treatment, Non-Complimentary 1 μM)
−2: Loewe Excess (MOLM-13 cells [1]; MOLM-13, 48 hour treatment, Non-Complimentary 10 μM) | Loewe Excess (MOLM-13 cells [1]; MOLM-13, 48 hour treatment, Non-Complimentary 50 μM)
1: Loewe Excess (MOLM-13 cells [1]; MOLM-13, 48 hour treatment, Non-Complimentary 75 μM) | Loewe Excess (MOLM-13 cells [1]; MOLM-13, 96 hour treatment, Non-Complimentary 1 μM) | Loewe Excess (MOLM-13 cells [1]; MOLM-13, 96 hour treatment, Non-Complimentary 75 μM)
−1: Loewe Excess (MOLM-13 cells [1]; MOLM-13, 96 hour treatment, Non-Complimentary 10 μM) | Loewe Excess (MOLM-13 cells [1]; MOLM-13, 96 hour treatment, Non-Complimentary 25 μM) | Loewe Excess (MOLM-13 cells [1]; MOLM-13, 96 hour treatment, Non-Complimentary 50 μM) | Loewe Excess (MOLM-13 cells [2]; Non-Complimentary 5 μM) | Loewe Excess (MOLM-13 cells [2]; Non-Complimentary 25 μM)
0: Excess over BLISS (KG-1 cells; KG-1, 48 hours) | Excess over HSA (KG-1 cells; KG-1, 48 hours) | Excess over BLISS (KG-1 cells; KG-1, 96 hours) | Excess over HSA (KG-1 cells; KG-1, 96 hours) | Loewe Excess (MOLM-13 cells [1]; MOLM-13, 96 hour treatment, Non-Complimentary 5 μM) | Excess over HSA (MOLM-13 cells [1]) | Excess over BLISS (MOLM-13 cells [2]; MOLM-13, 48 hours) | Excess over HSA (MOLM-13 cells [2]; MOLM-13, 48 hours) | Excess over BLISS (MOLM-13 cells [2]; MOLM-13, 96 hours)
